# PMC10119930, “Dual Molecules Targeting 5-HT6 and GABA-A Receptors as a New Approach to Combat Depression Associated with Neuroinflammation” (ACS Chemical Neuroscience, 2023)
# What was measured:
# [1] = Brain tissue stability assay; format: in vitro ADME; conditions: brain homogenate in Tris-HCl buffer
# Procedure: (§1) The quantitative HPLC analyses were acquired using Waters Alliance e2695 separations module (Waters, Milford, CT, USA) containing 2998 photodiode array (PDA), a detector (Waters, Milford, CT, USA), and the SpeedROD RP-18e 50–4.6 mm column (Merck, KGaA, Darmstadt, Germany). The temperature of the column was preserved at 30 °C. […] Each sample was injected at a volume of 10 μL in triplicate. […] The stock solutions were mixed with methanol and diluted, resulting in various solutions with concentrations ranging from 1.0 to 0.125 μg/mL. These solutions were then utilized to generate calibration curves by plotting AUC versus concentration in μg/mL. The examined molecules (2 mg) were dissolved in 1 mL of Dulbecco’s phosphate buffered saline (DPBS). The mixture was then continuously agitated at 22 °C for 24 h using a thermoshaker. Following this period, the mixtures were filtered through a cellulose acetate syringe filter (with a pore size of 0.22 μm), moved to a chromatographic vial, and analyzed. To quantify the investigated compounds, the areas beneath their respective peaks on DAD chromatograms were employed. Solubility was calculated using the calibration curves. Chemical stability assay: Stock solution of 16 in DMSO (10 mg/mL) was used. Next, 25 μL of stock solution was mixed with 975 μL of PBS (Dulbecco’s phosphate-buffered saline, Sigma, Poland). […] HPLC analyses were used to quantify the percentage of molecules that remained at each time point relative to the 0 min time point. Brain tissue stability assay: […] Then, 50 μL of the stock solution was combined with 50 μL of ice-cold 50 mM Tris-HCl buffer (pH 7.4) and 150 μL of brain homogenate (suspended in 20 volumes of 50 mM Tris-HCl buffer, ice cold, pH 7.4). The mix was then incubated at 37 °C and quenched at several time points. To terminate the reaction mixture, 250 μL of the appropriate reaction mixture was mixed with 1000 μL of MeCM in the Eppendorf Tube. Following 10 min of shaking (1500 rpm), samples were centrifuged (10 000 rpm, 10 min, 4 °C) and the acquired supernatant was collected. Before conducting HPLC analysis, the supernatant was filtered via a cellulose acetate syringe filter with a pore size of 0.45 μm and then transferred to a chromatographic vial. HPLC analysis was used to determine the percentage of the tested molecule remaining at each time point, relative to the 0 min time point. Plasma stability assay was performed as described previously.[45] Frozen rat plasma (Wistar) was thawed. […] The samples were collected at relative time points. The reaction was terminated by adding 1200 of μL acetonitrile/methanol mixture (50:50, v/v). The samples were centrifuge at 25 000 rpm for 10 min. HPLC analysis was used to determine the percentage of the tested molecule remaining at each time point relative to the 0 min time point. All the experiments were performed in duplicate.
# [2] = system: female Wistar rats; assay: Open field test in rats (locomotor activity); format: in vivo, rat; parameters: total distance traveled: unit not given here
# Procedure: Naïve female Wistar rats (weighing 180–200 g) were used in the study. The animals were housed in groups of three to four in standard Makrolon cages (37 cm × 21 cm × 15 cm) under strictly controlled laboratory conditions (ambient temperature 21–24 °C, relative humidity 45–65%) with a 12/12 h light–dark regime (light on at 6:00 a.m. and off at 6:00 p.m.). Animals had unrestricted access to tap water and food (typical pellets). Prior the experiment the animals were randomly appointed to the group. The behavioral studies were accomplished between 8:00 a.m. and 5:00 p.m. with the researcher blind to the study. The experiments were performed according to protocols approved by the Local Ethical Committee in Krakow (Approval Number 147/2018), Poland. Housing and experimental procedures were conducted under the European Union Directive of September 22, 2010 (2010/63/EU) and Polish legislation regarding animal studies. All efforts were made to minimize animal suffering and the number of animals used in the study.
# Vortioxetine (Sigma, Germany) and the tested compounds (16 and 6) were dissolved in 10% cyclodextrin and administered ip 30 min before the test or during 14 consecutive days, with the last injection 60 min before the test. 10% cyclodextrin was administrated to control group.
# A modified forced swim test was carried out according to Detke et al.[50],[51] First, the animals were individually placed inside Plexiglas cylinders, which were 40 cm high and 18 cm in diameter, filled with water at a temperature of 23–25 °C for 15 min. Afterward, the rats were transferred to a Plexiglas box and kept under a 60 W bulb for 30 min to dry. The day after, exactly 24 h later, the rats were once again placed in the cylinder, and their duration of immobility, swimming, and climbing was observed and recorded during a 5 min. The swimming behavior involved energetic movements such as horizontal swimming around the cylinder, while climbing activity referred to upward movements of the forepaws along the swim chamber’s side. Immobility was recorded when the rat only made necessary movements to keep its head above the water. For each test, a fresh water was provided. Open field test in rats: The test was conducted as previously reported by our research group.[52] The test was performed in a darkened room employing the Motor Monitor System (Campden Instruments, Ltd., U.K.). The system was equipped with two SmartFrame Open Field stations, each measuring 40 cm × 40 cm × 38 cm and consisting of 16 × 16 beams. These stations were placed inside sound-attenuating chambers and connected to a PC software using […]. The animals, belonging to either the vehicle-injected or drug-injected group, were individually positioned at the center of the station. The Motor Monitor System, which was automated, recorded the animal’s ambulation in both the X and Y axes, as well as the number of rearing and peeping episodes. Additionally, the total distance traveled by each animal during the 5 min test period was also recorded. Statistical analysis: Results are presented as the mean ± SEM values. They were estimated using one-way analysis of variance (ANOVA), followed by Newman–Keuls post hoc or unpaired two-tailed Student t test. Statistical significance was considered when p < 0.05 for differences between groups.
# [3] = Plasma stability assay; format: in vitro ADME, rat
# Procedure: as §1
# [4] = Thermodynamic solubility in PBS; format: physicochemical; conditions: Dulbecco’s phosphate buffered saline, 22 °C, aqueous buffer, thermodynamic from solid, PBS pH 7.4, rt
# Procedure: The temperature of the column was preserved at 30 °C. The experiment was conducted under the following conditions: a flow rate of 5 mL/min, eluent A (water/0.1% HCOOH), eluent B (MeCN/0.1% HCOOH), a gradient of starting from 0% of B to 100% of B over a duration of 3 min. Each sample was injected at a volume of 10 μL in triplicate. […] These solutions were then utilized to generate calibration curves by plotting AUC versus concentration in μg/mL. The examined molecules (2 mg) were dissolved in 1 mL of Dulbecco’s phosphate buffered saline (DPBS). The mixture was then continuously agitated at 22 °C for 24 h using a thermoshaker. Following this period, the mixtures were filtered through a cellulose acetate syringe filter (with a pore size of 0.22 μm), moved to a chromatographic vial, and analyzed. To quantify the investigated compounds, the areas beneath their respective peaks on DAD chromatograms were employed. Solubility was calculated using the calibration curves. […] All the experiments were performed in duplicate.
# [5] = acute treatment, dose 3, ip 30 min prior
# [6] = chronic treatment, dose 3, ip 14 days
structure (smiles),measurement,setting,value
"Cc1c(OCc2ccccc2)cccc1N1CCN(CCOC(=O)CCCN)CC1.Cl.Cl [Compound 16, 1-(2-((4-Ammoniobutanoyl)oxy)ethyl)-4-(3-(benzyloxy)-2-methylphenyl)piperazin-1-ium Dichloride]",% compound remaining (brain homogenate),[1]; 0 min,100 ± 0.3%
same,% compound remaining (brain homogenate),[1]; 15 min,97.81 ± 2.1%
same,% compound remaining (brain homogenate),[1]; 30 min,92.56 ± 1.9%
same,% compound remaining (brain homogenate),[1]; 60 min,87.12 ± 3.2%
same,% compound remaining (brain homogenate),[1]; 120 min,49.73 ± 2.4%
same,% compound remaining (brain homogenate),[1]; 240 min,25.34 ± 1.6%
same,X ambulation,[2]; [5],221.3
same,Y ambulation,[2]; [5],213.7
same,rearing,[2]; [5],34.5
same,total distance traveled,[2]; [5],506.3
same,influence on spontaneous locomotor activity,"[2]; acute, 3 mg/kg",did not observe any influence
same,X ambulation,[2]; [6],260.4
same,Y ambulation,[2]; [6],255.3
same,rearing,[2]; [6],52.2
same,total distance traveled,[2]; [6],2575
same,changes in spontaneous locomotor activity,"[2]; subchronic, 3 mg/kg",did not result in any significant changes
same,"% compound remaining (rat plasma, 37 °C)",[3]; 0 min,100 ± 0.1%
same,"% compound remaining (rat plasma, 37 °C)",[3]; 15 min,97.21 ± 0.8%
same,"% compound remaining (rat plasma, 37 °C)",[3]; 30 min,90.35 ± 1.4%
same,"% compound remaining (rat plasma, 37 °C)",[3]; 60 min,79.65 ± 2.5%
same,"% compound remaining (rat plasma, 37 °C)",[3]; 120 min,45.37 ± 2.2%
same,"% compound remaining (rat plasma, 37 °C)",[3]; 240 min,21.46 ± 1.2%
same,solubility at 24 h,[4],> 2000 µg/mL
